Measured values reported in patent US9540337B2, “Gamma-glutamyl transpeptidase inhibitors and methods of use” (The Board of Regents of the University of Oklahoma, priority 2012, dated 2017).
Read-outs that look alike come from different tables or passages of the source.

Experiments:
[1] = molecular target: T1, hGGT (Homo sapiens, UniProt P19440); experiment: L-Glutamate Release Assay (Hydrolysis of GSH); assay type: biochemical; details: for Ki: GSH hydrolysis, read-out: GSH Kii
T1 construct: lacking the transmembrane domain; made in house; host or cells: Pichia pastoris
T1 sequence (P19440 381-569 limits assumed): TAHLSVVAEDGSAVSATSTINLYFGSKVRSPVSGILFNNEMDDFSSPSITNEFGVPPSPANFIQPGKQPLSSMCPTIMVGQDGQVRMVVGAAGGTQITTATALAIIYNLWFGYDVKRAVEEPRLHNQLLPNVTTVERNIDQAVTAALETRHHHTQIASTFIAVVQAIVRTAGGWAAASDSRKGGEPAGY
T1 sequence (P19440 27-380 limits assumed): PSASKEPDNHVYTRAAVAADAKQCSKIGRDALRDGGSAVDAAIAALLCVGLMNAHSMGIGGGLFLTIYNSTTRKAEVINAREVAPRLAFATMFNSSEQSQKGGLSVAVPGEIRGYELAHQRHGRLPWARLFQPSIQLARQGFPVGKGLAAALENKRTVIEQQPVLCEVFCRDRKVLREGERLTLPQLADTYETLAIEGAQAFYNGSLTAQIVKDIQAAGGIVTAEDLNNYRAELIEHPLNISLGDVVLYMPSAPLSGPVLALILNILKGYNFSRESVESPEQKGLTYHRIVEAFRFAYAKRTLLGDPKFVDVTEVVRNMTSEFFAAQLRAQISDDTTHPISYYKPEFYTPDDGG
Description: L-Glutamate Release Assay (Hydrolysis of GSH): This assay measures the production of glutamate from the hydrolysis of GSH by GGT enzyme and has been described in detail previously. The concentration of the substrate, GSH, was varied from 5 μM to 20 μM. The concentration of the inhibitors, OU749 and its analogs, were varied from 15.6 μM to 250 μM. The reaction was initiated with the addition of 10 mU hGGT. […] All compounds were also evaluated as inhibitors of glutamate dehydrogenase, the enzyme in the second half of the L-glutamate release assay. None of the compounds in this study inhibited glutamate dehydrogenase.

[2] = molecular target: T2, Human GGT1 (hGGT) (Homo sapiens, UniProt P19440); experiment: L-GpNA Transpeptidation Assay with GlyGly as acceptor; assay type: biochemical; set-up: lacking the transmembrane domain; made in house; host or cells: Pichia pastoris
T2 sequence (P19440 381-569 limits assumed): as the sequence (P19440 381-569 limits assumed) above
T2 sequence (P19440 27-380 limits assumed): as the sequence (P19440 27-380 limits assumed) above
Description: Transpeptidation Reaction: The same assay buffer was used for both the hydrolysis reaction and the transpeptidation reaction. The transpeptidation reaction included 40 mM glycylglycine (glygly, Sigma, St. Louis, Mo.) as the acceptor. […] The concentration of L-GpNA was 3 mM for experiments in which the concentration of glygly was varied. To initiate the transpeptidation reaction, 4 mU GGT were added.
1. […] 3 and 4. […] 5 (25).
L-GpNA Transpeptidation Assay: The assay has been described previously. […] The concentration of L-GpNA was 3 mM for experiments in which the concentration of GlyGly was varied. To initiate the transpeptidation reaction, 4 mU GGT were added.

[3] = molecular target: T2, Human GGT1 (hGGT); experiment: D-GpNA Hydrolysis Assay (release of pNA, 405 nm, pH 7.4)
Description: (§1) Enzyme Isolation: Human GGT1 (P19440), lacking the transmembrane domain, was expressed in Pichia pastoris and isolated as previously described (14). […] One unit of GGT activity was defined as the amount of enzyme that released 1 μmol of paranitroaniline/min at 37° C. at pH 7.4 in the transpeptidation reaction.
The reaction was initiated with the addition of 19 mU GGT. The reaction was incubated at 37° C. and monitored continuously at 405 nm by a Bio-Rad model 680 microplate reader with Microplate Manager 5.2 software (Bio-Rad, Hercules, Calif.).
Data Analysis: Samples in each experiment were run in triplicate. Each inhibitor was evaluated in two or more independent experiments. Double reciprocal plots were generated to assess data quality and determine the correct rate equation for data fitting. Data were fitted using the proper rate equation and the Marquardt-Levenberg algorithm supplied with the Enzfitter program (BIOSOFT, Cambridge, UK). Kinetic parameters with standard errors were estimated using a simple weighting method.
Data adhering to Michaelis-Menten Kinetics were fitted to eq. 1. Data for initial rate patterns with D-, L-GpNA varied at different fixed levels of glygly were fitted to eq. […] Data for competitive and uncompetitive inhibition were fitted to eqs. 3 and 4. Data for the dependence of Vmax and Vmax/KD-GpNA on the concentration of activator were fitted using eq. 5 (25).
In eqs 1-6, Vmax are the initial and maximum rates, respectively, Ka and Kb are Michaelis constants for substrates A and B, respectively, and Kis and Kii are slope and intercept inhibition constants. In eq. 5, a is the value of Vmax or Vmax/KD-GpNA at zero activator/inhibitor, KID is the activation or inhibition constant, and KIN is a constant that causes the parameter to go to a constant value at infinite concentrations of X, the activator/inhibitor. The product a(KID/KIN) is the value of Vmax or Vmax/KD-GpNA at infinite activator/inhibitor (25). Data for noncompetitive inhibition were fitted to eq. 6. Data for the dependence of Vmax and Vmax/KD-GpNA on the concentration of activator were fitted using […].
as §1, with “hGGT” for “Human GGT1”, “described.” for “described (14).”, “reaction with L-GpNA.” for “reaction.”
D-GpNA Hydrolysis Assay: The assay was carried out as previously described. […] The reaction was initiated with the addition of 19 mU GGT as determined by the L-GpNA transpeptidation assay. The reaction was incubated at 37° C. and monitored continuously at 405 nm.

[4] = molecular target: T3, Human GGT1 (Homo sapiens, UniProt P19440); experiment: Initial rate studies with D-GpNA and L-GpNA, with or without acceptor GlyGly; assay type: biochemical; details: for second order rate constant: rounded in discussion; for fold increase of Vmax in the presence of GlyGly: plus vs minus GlyGly
T3 construct: lacking the transmembrane domain; made in house; host or cells: Pichia pastoris
T3 sequence (P19440 381-569 limits assumed): as the sequence (P19440 381-569 limits assumed) above
T3 sequence (P19440 27-380 limits assumed): as the sequence (P19440 27-380 limits assumed) above
Description: Transpeptidation Reaction: The same assay buffer was used for both the hydrolysis reaction and the transpeptidation reaction. The transpeptidation reaction included 40 mM glycylglycine (glygly, Sigma, St. Louis, Mo.) as the acceptor. The concentration of the substrate for the transpeptidation reaction, L-GpNA (Sigma) was varied from 0.25 mM to 3 mM. The concentration of L-GpNA was 3 mM for experiments in which the concentration of glygly was varied. To initiate the transpeptidation reaction, 4 mU GGT were added.
1. […] 2, which describes a ping pong kinetic mechanism. […] 3 and 4. […] 5 (25).
In eq. […] Data for noncompetitive inhibition were fitted to eq. 6. […] 6 [25].
Initial Rate Studies with D-GpNA and L-GpNA: In this study, the inhibition of both the GGT hydrolysis and transpeptidation reactions by OU749 and a new series of thiadiazol sulfonamide analogs was studied. The hydrolysis and transpeptidation reactions were analyzed separately by using different stereo-isomers of the γ-glutamyl-p-nitroanilide (GpNA) substrate. The kinetics of both reactions were first characterized in the absence of inhibitors. Cleavage of the γ-glutamyl bond of either D-GpNA or L-GpNA releases p-nitroanaline, which has an OD405 of 7,680 M^−1 cm^−1, allowing for the reactions to be monitored continuously with high sensitivity. The D-glutamyl isomer of GpNA was used as the substrate for the hydrolysis reaction, in which water serves as the acceptor. The L-glutamyl isomer of GpNA, with glycylglycine (GlyGly) as an acceptor, was used for the transpeptidation reaction. L-GpNA can serve as both a substrate and a low affinity acceptor, while D-GpNA is unable to serve as an acceptor (18, 21, 26). Therefore, in the absence of an added acceptor GGT exclusively catalyzes a hydrolysis reaction with D-GpNA as the substrate. When L-GpNA is used as a substrate, the GGT reaction is a mixture of both the hydrolysis and transpeptidation reactions. Under these conditions, the rate of the reaction is the sum of hydrolysis and transpeptidation reactions, with the hydrolysis reaction contributing more at low L-GpNA concentrations and transpeptidation dominating at saturating substrate concentrations. […] However, the maximum rate (Vmax) obtained with L-GpNA was approximately 3-times faster than that measured with D-GpNA, and the KGpNA for L-GpNA was 5-times higher than that measured for D-GpNA. This is at least partially due to the ability of L-GpNA to serve as an acceptor, resulting in a transpeptidation reaction, which is faster than the hydrolysis reaction. Therefore, to study the hydrolysis reaction in isolation, D-GpNA was used as the substrate without any added acceptor.

[5] = Table 5, read-out: GlyGly with L-GpNA Kis
[6] = Table 5, read-out: L-GpNA with GlyGly Kii

Row | Ki ([1]; Table 5) [µM] | Ki [2, 5] [µM] | Ki [2, 6] [µM] | Ki [3] [µM] | Structure (SMILES) | also measured
1 | 121 ± 5 | 30 ± 5 | 129 ± 17 |  | Cc1cccc(Cc2nnc(NS(=O)(=O)c3ccc(N)cc3)s2)c1 [Compound 24] | Ki ([3]; read-out: D-GpNA Kii, Table 5): 109 ± 4 µM
2 | 419 ± 27 | 7 ± 1 | 54 ± 1 | 56 | Nc1ccc(S(=O)(=O)Nc2nnc(Cc3ccc(Cl)cc3)s2)cc1 [Compound 28] | 
3 | 905 ± 53 | 5 ± 1 | 34 ± 4 | 32 ± 1 | Nc1ccc(S(=O)(=O)Nc2nnc(Cc3ccc(Cl)c(Cl)c3)s2)cc1 [Compound 29] | decrease of Kis as competitive inhibitor of GlyGly relative to OU749 [2]: up to 11 fold

Second part, the compound before the results:

Row | Structure (SMILES) | Ki ([1]; Table 5) [µM] | Ki [2, 5] [µM] | Ki [2, 6] [µM] | Ki [3] [µM] | also measured
4 | Nc1ccc(Cc2nnc(NS(=O)(=O)c3ccc(N)cc3)s2)cc1 [Compound 23] | 102 ± 16 | 15 ± 1 | 181 ± 20 | 29 ± 3 | 
5 | Nc1ccc(S(=O)(=O)Nc2nnc(Cc3ccccc3)s2)cc1 [Compound 25] | 242 ± 6 | 42 ± 2 | 74 ± 4 | 58 ± 6 | 
6 | Nc1ccc(S(=O)(=O)Nc2nnc(Cc3ccc(F)cc3)s2)cc1 [Compound 26] | 355 ± 16 | 47 ± 7 | 58 ± 4 | 24 ± 2 | 
7 | CN(C)c1ccc(Cc2nnc(NS(=O)(=O)c3ccc(N)cc3)s2)cc1 [Compound 27] | 363 ± 35 | 24 ± 4 | 275 ± 12 | 180 ± 5 | 
8 | COc1ccc(Cc2nnc(NS(=O)(=O)c3ccc4ccccc4c3)s2)cc1 [Compound 30] |  |  |  | 415 ± 50 | Ki ([1]; Table 6): 206 ± 37 µM; fold less potent than Compound 6 in inhibiting catabolism of GSH ([1]; relative to Compound 6): 2.1 fold; Ki ([2]; Table 6, read-out: GlyGly with L-GpNA Kis): 143 ± 20 µM; Ki ([2]; Table 6, read-out: L-GpNA with GlyGly Kii): 364 ± 43 µM
9 | N[C@H](CCC(=O)Nc1ccc([N+](=O)[O-])cc1)C(=O)O [D-GpNA, D-gamma-glutamyl para-nitroanalide] |  |  |  |  | V ([4]; minus acceptor): 2.1 ± 0.2 mM/min/nM; V/KGpNA ([4]; minus acceptor): 2.2e+08 ± 1.7e+06 M⁻¹ s⁻¹; second order rate constant ([4]; minus acceptor): 2.17e+08 M⁻¹ s⁻¹; KGlyGly ([4]; plus acceptor GlyGly): 7.0 ± 0.3 mM; V ([4]; plus acceptor GlyGly): 53 ± 11 mM/min/nM; V/KGlyGly ([4]; plus acceptor GlyGly): 1.27e+08 ± 2.5e+07 M⁻¹ s⁻¹; V/KGpNA ([4]; plus acceptor GlyGly): 2.12e+08 ± 4.17e+07 M⁻¹ s⁻¹; fold increase of Vmax in the presence of GlyGly [4]: 25 fold
10 | N[C@@H](CCC(=O)Nc1ccc([N+](=O)[O-])cc1)C(=O)O [L-GpNA, L-gamma-glutamyl para-nitroanilide] |  |  |  |  | KGpNA relative to D-GpNA ([4]; minus acceptor): 5 times; V ([4]; minus acceptor): 6.5 ± 0.2 mM/min/nM; V/KGpNA ([4]; minus acceptor): 1.3e+08 ± 3.3e+06 M⁻¹ s⁻¹; second order rate constant ([4]; minus acceptor): 1.3e+08 M⁻¹ s⁻¹; KGlyGly ([4]; plus acceptor GlyGly): 9.9 ± 0.9 mM; V ([4]; plus acceptor GlyGly): 141 ± 11 mM/min/nM; V/KGlyGly ([4]; plus acceptor GlyGly): 2.33e+08 ± 1.7e+07 M⁻¹ s⁻¹; V/KGpNA ([4]; plus acceptor GlyGly): 1.95e+09 ± 1.5e+08 M⁻¹ s⁻¹; fold increase of Vmax in the presence of GlyGly [4]: 22 fold
